Source: patent US4783443A, “Amino acyl cephalosporin derivatives” (The University of Chicago, priority 1986, dated 1988)

Legend:
[1] = test system: Escherichia coli JSR-O Cl-Pep^R; test: Minimum inhibitory concentration (MIC); assay type: cell-based; conditions: Escherichia coli JSR-O Cl-Pep^R; selected for resistance to the peptide (f)
Text: (§1) The antibacterial effects of compounds of the invention have been assessed by determination of the minimum inhibitory concentration (M.I.C.) value against a variety of Gram-negative and -positive bacteria. The microbial susceptibility data for four compounds, together with those for the antibacterial dipeptide beta-Cl-LAla-beta-Cl-LAla, are given in Table I.
(§2) in uM to facilitate a meaningful comparison of the approximate MICs among
(§3) the tested compounds; an appreciation of the MIC values in ug/mL can be
(§4) obtained by multiplying each value (μM) by 0.55
^(g) This ia an E. coli JSRO strain selected for resistance to the
A comparison of the data for E. coli strains JSR-O and JSR-O Cl-Pep^R is of special interest. E. coli Cl-Pep^R is an E. coli JSR-O mutant which was selected for resistance to the dipeptide (f). […] Note that the MIC values for (d) and (e) against E. coli Cl-Pep^R (100 and 50 μM, respectively) are quite similar.

[2] = test system: Gram-negative and -positive bacteria; test: Antibacterial activity, general trends of the MIC panel of Table I; assay type: cell-based
Text: as §1

[3] = test system: Gram-negative and -positive bacteria; conditions: Cheung et al., 1983; cited from earlier work
[4] = test system: Staphylococcus epidermidis (P^R M^R); test: Minimum inhibitory concentration (MIC); assay type: cell-based; conditions: no strain number
Text: as §1, §2, §3, §4
(§5) ^(k) P and M refer to penicillin and methicillin, respectively.

[5] = test system: Staphylococcus epidermidis 1239(P^R M^R); test: Minimum inhibitory concentration (MIC); assay type: cell-based
Text: as §1, §2, §3, §4, §5

[6] = test system: Staphylococcus epidermidis MO1554(P^S M^S); test: Minimum inhibitory concentration (MIC); assay type: cell-based; conditions: Staphylococcus epidermidis MO1554 (penicillin- and methicillin-sensitive, P^S M^S)
Text: as §1, §2, §3, §4, §5

Corynebacterium JKR-2285 = test: Minimum inhibitory concentration (MIC); assay type: cell-based; conditions: Corynebacterium JKR-2285; resistant to cephalothin
Text: as §1, §2, §3, §4
(§6) ^(j) Resistant to cephalothin (MIC >200 uM);

Escherichia coli Ceph^R = test: Minimum inhibitory concentration (MIC); assay type: cell-based; conditions: Escherichia coli Ceph^R; resistant to cephalothin
Text: as §1, §2, §3, §4, §6

Corynebacterium JKM-4754 = test: Minimum inhibitory concentration (MIC); assay type: cell-based; conditions: Corynebacterium JKM-4754; resistant to cephalothin
Text: as §1, §2, §3, §4, §6

[7] = test system: Staphylococcus aureus PSL-14 Pen^R; test: Minimum inhibitory concentration (MIC); assay type: cell-based; conditions: possesses a betalactamase
Text: as §1, §2, §3, §4

Psuedomonas aeruginosa = test: Minimum inhibitory concentration (MIC); assay type: cell-based; conditions: Gram-negative
Text: as §1, §2, §3, §4

Streptococcus faecalis = test: Minimum inhibitory concentration (MIC); assay type: cell-based; conditions: Streptococcus faecalis; Gram positive
Text: as §1, §2, §3, §4

[8] = test system: Hemophilus influenzae 238; test: Minimum inhibitory concentration (MIC); assay type: cell-based
Text: as §1, §2, §3, §4

[9] = test system: Salmonella typhimurium LT 2; test: Minimum inhibitory concentration (MIC); assay type: cell-based; conditions: Gram-negative
Text: as §1, §2, §3, §4

Escherichia coli CR = test: Minimum inhibitory concentration (MIC); assay type: cell-based; conditions: Escherichia coli CR
Text: as §1, §2, §3, §4

[10] = test system: Staphylococcus aureus H-2690-8^R; test: Minimum inhibitory concentration (MIC); assay type: cell-based; conditions: possesses a betalactamase
Text: as §1, §2, §3, §4

Shigella flexneri = test: Minimum inhibitory concentration (MIC); assay type: cell-based; conditions: Gram-negative
Text: as §1, §2, §3, §4

[11] = test system: Hemophilus influenzae 487; test: Minimum inhibitory concentration (MIC); assay type: cell-based; conditions: possesses a betalactamase
Text: as §1, §2, §3, §4

Enterobacter areogenes = test: Minimum inhibitory concentration (MIC); assay type: cell-based; conditions: Gram-negative
Text: as §1, §2, §3, §4

[12] = test system: Staphylococcus aureus PSL-16 Pen^R; test: Minimum inhibitory concentration (MIC); assay type: cell-based; conditions: possesses a betalactamase
Text: as §1, §2, §3, §4

Enterobacter cloacae = test: Minimum inhibitory concentration (MIC); assay type: cell-based; conditions: Gram-negative
Text: as §1, §2, §3, §4

[13] = test system: Hemophilus influenzae 236; test: Minimum inhibitory concentration (MIC); assay type: cell-based
Text: as §1, §2, §3, §4

Streptococcus agalactiae = test: Minimum inhibitory concentration (MIC); assay type: cell-based; conditions: Gram positive
Text: as §1, §2, §3, §4

[14] = test system: Staphylococcus aureus T-4624-8 Pen^R; test: Minimum inhibitory concentration (MIC); assay type: cell-based; conditions: possesses a betalactamase
Text: as §1, §2, §3, §4

Serratia marcescens = test: Minimum inhibitory concentration (MIC); assay type: cell-based; conditions: Gram-negative
Text: as §1, §2, §3, §4

Klebsiella pneumoniae = test: Minimum inhibitory concentration (MIC); assay type: cell-based; conditions: Gram-negative
Text: as §1, §2, §3, §4

[15] = test system: Staphylococcus aureus PSL-13 Pen^R; test: Minimum inhibitory concentration (MIC); assay type: cell-based; conditions: possesses a betalactamase
Text: as §1, §2, §3, §4

[16] = test system: Staphylococcus aureus PSL-15 Pen^R; test: Minimum inhibitory concentration (MIC); assay type: cell-based; conditions: possesses a betalactamase
Text: as §1, §2, §3, §4

Morganella morganii = test: Minimum inhibitory concentration (MIC); assay type: cell-based; conditions: Gram-negative
Text: as §1, §2, §3, §4

Salmonella typhimurium = test: Minimum inhibitory concentration (MIC); assay type: cell-based; conditions: Gram-negative
Text: as §1, §2, §3, §4

Escherichia coli JSR-O = test: Minimum inhibitory concentration (MIC); assay type: cell-based; conditions: Escherichia coli JSR-O; parental strain
Text: as §1, §2, §3, §4

## Betachloro-L-Ala-beta-chloro-L-Ala [(f), reference compound]
[1]
  Minimum Inhibitory Concentration: > 200 µM
[2]; P. aeruginosa, S. marcescens and K. pneumoniae
  insensitivity / resistance: inherently insensitive
[2]; S. aureus strains, Corynebacterium JK strains, S. faecalis, H. influenzae 487, E. coli JSR-O and E. cloacae
  sensitivity: sensitive
[2]; S. epidermidis 1239 P^R M^R and M-1554 P^S M^S
  sensitivity: exquisitely sensitive
[3]
  antibacterial potency of dipeptide versus beta-Cl-LAla: consistently and dramatically more potent an antibacterial agent than is beta-Cl-LAla alone
[4]
  Minimum Inhibitory Concentration: ≤ 0.78 µM
[5]
  Minimum Inhibitory Concentration: ≤ 0.78 µM
[6]
  Minimum Inhibitory Concentration: ≤ 0.78 µM
Corynebacterium JKR-2285
  Minimum Inhibitory Concentration: 0.78 µM
Escherichia coli Ceph^R
  Minimum Inhibitory Concentration: 3.12 µM
Corynebacterium JKM-4754
  Minimum Inhibitory Concentration: 0.78 µM
[7]
  Minimum Inhibitory Concentration: 12.5 µM
Psuedomonas aeruginosa
  Minimum Inhibitory Concentration: > 200 µM
Streptococcus faecalis
  Minimum Inhibitory Concentration: 6.25 µM
[8]
  Minimum Inhibitory Concentration: 12.5 µM
[9]
  Minimum Inhibitory Concentration: 200 µM
Escherichia coli CR
  Minimum Inhibitory Concentration: 12.5 µM
[10]
  Minimum Inhibitory Concentration: 1.56 µM
Shigella flexneri
  Minimum Inhibitory Concentration: 200 µM
[11]
  Minimum Inhibitory Concentration: ≤ 0.78 µM
Enterobacter areogenes
  Minimum Inhibitory Concentration: 25 µM
[12]
  Minimum Inhibitory Concentration: 12.5 µM
Enterobacter cloacae
  Minimum Inhibitory Concentration: 12.5 µM
[13]
  Minimum Inhibitory Concentration: > 200 µM
Streptococcus agalactiae
  Minimum Inhibitory Concentration: ≤ 0.78 µM
[14]
  Minimum Inhibitory Concentration: 1.56 µM
Serratia marcescens
  Minimum Inhibitory Concentration: > 200 µM
Klebsiella pneumoniae
  Minimum Inhibitory Concentration: > 200 µM
[15]
  Minimum Inhibitory Concentration: 1.56 µM
[16]
  Minimum Inhibitory Concentration: 12.5 µM
Morganella morganii
  Minimum Inhibitory Concentration: 200 µM
Salmonella typhimurium
  Minimum Inhibitory Concentration: 200 µM
Escherichia coli JSR-O
  Minimum Inhibitory Concentration: 12.5 µM
